Entries after “also recorded” stand apart in the source; their conditions may differ.
Legend:
[1] = tested on: mucosal Th1 and Th2 cells; experiment: Frequencies and cytokine levels of macaque rectal mucosal T cells following SAMT-247 and PMA stimulation; type: cell-based; settings: following PMA stimulation
Source text: Additionally, rectal tissue from 9 macaques was used for an in vitro study. The age-matched macaques from this separate study (P204) included 4 animals vaccinated against HIV and 5 naïve animals, all challenged with SHIV. Rectal tissue was obtained post challenge from 7 infected and 2 uninfected animals for the P204 study analysis. Extra cells were available from that collection and were used here for the in vitro study.
Frequencies and cytokine levels of macaque rectal mucosal NK cells and T cells following SAMT-247 and PMA stimulation. NK/ILC and T cell frequencies and cytokine levels were measured in macaque rectal mucosa. Freshly collected rectal biopsies were processed to single cells and cultured in R10 in the presence/or absence of SAMT-247 and/or PMA for 12 hours. Subsequently, cells were stained for live cells with Live/Dead Blue dye (cat. #L34962, 0.5 μl) from Thermofisher; followed by surface staining with the following: BUV737 anti-CD3 (SP34-2; cat. #741872, 5 μl), BV711 anti-CD4 (L200; cat. #563913, 5 μl), BV650 anti-NKp44 (P44-8; cat. #744302, 5 μl), Alexa700 anti-CD20 (2H7; cat. #560631, 5 μl), BV786 anti-CD45 (D058-1283; cat. #563861, 5 μl) from BD Biosciences; APC-H7 anti-CD11b (ICRF44; cat. #47-0118-42, 5 μl), PE-Cy5 anti-CD95 (ICRF44; cat. #15-0959-42, 5 μl) from eBioscience; BV570 anti-CD8 (RPA-T8; cat. #301038, 5 μl), BV605 anti-CCR6 (G034E3; cat. #353420, 5 μl), APC anti-CXCR3 (G025H7; cat. #353708, 5 μl), from Biolegend and PE-Cy7 anti-NKG2A (Z199; cat. #B10246, 5 μl) from Beckman coulter for 30 minutes at room temperature. This was followed by permeabilization with a FOX3-transcription buffer set (cat. #00-5523-00) from eBioscience according to the manufacture's recommendation and subsequently intracellular staining with the following: BV750 anti-TNF-α (MAB11; cat. #566359, 5 μl), BUV395 anti-IFN-γ (B27; cat. #563563, 5 μl), BV510 anti-GranB (GB11; cat. #563388, 5 μl), BV421 anti-IL-10 (JES3-9D7; cat. #564053, 5 μl) from BD Biosciences; PE-Cy5.5 anti-IL-17 (BL168; cat. #512314, 5 μl) from Biolegend; and FITC anti-Perforin (pf-344; cat. #3465-7, 5 μl) from MABTECH for 30 minutes at room temperature. Flow cytometry acquisitions were performed on a FACSymphony A5 and examined using FACSDiva software (BD Biosciences).

SIVmac251 = experiment: Weekly intravaginal SIVmac251 challenge of vaccinated and/or SAMT-247 gel treated female macaques; type: in vivo, Rhesus macaques
Source text: Animals. Fifty female Indian Rhesus macaques obtained from the free-range breeding colony on Morgan Island, South Carolina, were used in this study. The macaques, aged 2 to 3 years at study initiation, were negative for SIV, simian retrovirus, and STLV, and were MHC typed before being divided into 4 groups: vaccine/microbicide group (20 macaques, 3 A*01 positive, 1 B*17 positive, 1 B*08 positive); vaccine only group (18 macaques, 3 A*01 positive, 1 B*17 positive); microbicide only group (6 macaques, 1 both A*01 positive and B*17 positive) and control group (6 macaques, 1 both A*01 positive and B*17 positive). Data on 37 historical naïve controls intravaginally challenged with the same dose and lot of SIVmac251 were added to the control group to increase statistical power. […]
Immunization and Challenge. […] Up to 14 challenges were administered until the macaques became SIV positive as assessed by droplet digital PCR. […]
Statistical analysis. […] Comparisons of differences between groups in the number of challenges before viral acquisition were assessed using the log-rank (Mantel-Cox) test of the discrete-time proportional hazards model. […] Correlation analyses were performed using the non-parametric Spearman rank correlation method with exact permutation and approximate two-tailed P values calculated for the number of pairs≤17 and >17, respectively. […]

Structure (SMILES): CC(=O)Sc1ccccc1C(=O)NCCC(N)=O [SAMT-247]
- IL-10 production in mucosal Th1 cells [1]: increase
- TNF-α production in mucosal Th1 and Th2 cells [1]: significant decrease
- risk of virus acquisition compared to controls (SIVmac251; female macaques, up to 14 weekly intravaginal SIVmac251 exposures, SAMT-247 0.8% in HEC gel 4 h before each challenge): No differences in delayed acquisition; also recorded: did not significantly decrease; also recorded: had no effect
- peak virus levels, SAMT-247 only group vs controls (SIVmac251; infected animals, peak VL at week 2): no difference
